The record followed here is PubChem BioAssay (NCI).

Several values for one entry are separate records, joined by “and”; a condition that tells them apart may be missing. Equal entries are not always repeated.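 Protocol summary: plate cells (96-well), add compound at 5 concentrations, incubate 48 h, interpolate endpoints linearly. At the GI50, growth is halved. TGI marks complete inhibition of growth.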

Test in all cases: DTP human tumour cell line panel, 48 h
The subject of assay [1] is OVCAR-4 ovarian.
For assay [2], the system named is SF-539 CNS.
For assay [3], the system named is OVCAR-8 ovarian.
In assay [4] the test system is NCI-H522 lung.
Assay [5] deals with SK-MEL-5 melanoma.
Assay [6] concerns T-47D breast.
In assay [7] the test system is CAKI-1 renal.
Assay [8] deals with SNB-75 CNS.

Regarding `CN1CCN(CCCn2c3c(sc4ncccc43)c(=O)n3nnc(-c4ccccc4)c23)CC1`, the GI50 in assay [1] was 1.87 µM; in assay [2] it was 1.71 µM; in assay [3], 1.88 µM; in assay [4], 1.6 µM; in assay [5], 1.65 µM; in assay [6] it was 20.2 µM. Also, the GI50 in assay [7] was 1.59 µM; in assay [8], 9.85 µM. The TGI in assay [1] turned out to be 3.73 µM; in assay [2], 3.33 µM; in assay [3] it was 4.31 µM; in assay [4], 3.3 µM; in assay [5], 3.05 µM; in assay [6], 39.4 µM. Moreover, the results for the TGI in assay [7] and in assay [8] were 3.19 µM and 23.4 µM, respectively.

For `Nc1[nH]c(=S)[nH]c(=O)c1N=Nc1c(Br)cc(S(N)(=O)=O)cc1Br`, the TGI in assay [1], in assay [2], in assay [3], in assay [4], in assay [5] and in assay [6] was above 100 µM each time. Further, the TGI in assay [7] and in assay [8] was above 100 µM each time.

For `CC(=O)OCc1cc[c]([Hg][Cl])o1`, the GI50 in assay [1] was 12.7 µM; in assay [2], 4.97 µM; in assay [3] it was 11.4 µM; in assay [4], 0.709 µM; in assay [5], 4.38 µM; in assay [6], 1.36 µM. The GI50 was 10.4 µM in assay [7] and 12.8 µM in assay [8]. Moreover, the TGI in assay [1] stood at 43 µM; in assay [2] it was 21.2 µM; in assay [3] it was 57.7 µM; in assay [4], 2.45 µM; in assay [5] it was 15.9 µM; in assay [6], 3.98 µM. Besides, the TGI in assay [7] was determined as 23.5 µM; in assay [8], 51.4 µM.

`OCC1OC(N2CCN(C3OC(CO)C(O)C(O)C3O)CC2)C(O)C(O)C1O` (configuration not stated): the total growth inhibition concentration (TGI) in assay [1], in assay [2], in assay [3], in assay [4], in assay [5] and in assay [6] was above 100 µM each time. Moreover, the TGI in assay [7] and in assay [8] was above 100 µM each time.

Regarding `Cn1cc(-c2[nH]c3cc(NC(=O)[C@H](N)C4CCCCC4)cc4c3c2C=NNC4=O)cn1`, the GI50 in assay [1] was 0.184 µM and 0.217 µM; in assay [2], 0.118 µM and 0.109 µM; in assay [3] it was 0.264 µM and 0.351 µM; in assay [4], 0.352 µM and 0.222 µM; in assay [5], 0.696 µM and 0.55 µM; in assay [6] it was 15 µM. The GI50 in assay [7] is 1.8 µM and 0.705 µM; in assay [8] it was 0.339 µM and 0.311 µM. Also, the TGI in assay [1] was 10.5 µM and > 10 µM; in assay [2], 0.67 µM and 0.628 µM; in assay [3], 4.08 µM and > 10 µM; in assay [4], 1.96 µM and 2.77 µM; in assay [5] it was 13.1 µM and > 10 µM; in assay [6], 31.3 µM. Besides, the TGI is 10.5 µM and > 7.91 µM in assay [7]; 1.88 µM and 1.84 µM in assay [8].

As for `Nc1ncnc2c1ncn2Cc1ccc(CCl)cc1`, the GI50 in assay [1] is 19.4 µM; in assay [2] it was 16.7 µM; in assay [3], 15.5 µM; in assay [4], 24 µM; in assay [5] it was 15.2 µM; in assay [6], 8 µM. For the same compound, the GI50 in assay [7] is 14.3 µM; in assay [8], 22.3 µM. Moreover, the TGI amounted to 38.3 µM in assay [1]; 38.4 µM in assay [2]; 31.5 µM in assay [3]; 51.9 µM in assay [4]; 28.5 µM in assay [5]; 27.4 µM in assay [6]. Besides, the TGI was 28.9 µM in assay [7] and 62.6 µM in assay [8].

As to `CCN(CC(O)COc1ccc2c(c1)[n+]([O-])nc(N)[n+]2[O-])C(C)=O` (configuration not stated), the TGI in assay [1], in assay [2], in assay [3], in assay [4], in assay [5] and in assay [6] was above 100 µM throughout. For the same compound, the TGI in assay [7] and in assay [8] was above 100 µM each time.

Regarding `O=C(O)[C@@H](Cc1ccccc1)NS(=O)(=O)c1ccc(-c2ccccc2)cc1`, the GI50 in assay [1], in assay [2], in assay [3], in assay [4], in assay [5] and in assay [6] was above 100 µM each time. The GI50 in assay [7] and in assay [8] was above 100 µM each time. The TGI in assay [1], in assay [2], in assay [3], in assay [4], in assay [5] and in assay [6] was above 100 µM throughout. Further, the TGI in assay [7] and in assay [8] was above 100 µM each time.

For the compound `O=[N+]([O-])c1ccc(NC(c2ccccc2)c2ccc3cccnc3c2O)cc1` (configuration not stated), the GI50 was 0.331 µM in assay [1]; 0.499 µM in assay [2]; 0.435 µM in assay [3]; 0.392 µM in assay [4]; 0.4 µM in assay [5]; 0.633 µM in assay [6]. For the same compound, the GI50 in assay [7] was 0.312 µM; in assay [8] it was 1.63 µM. Further, the TGI is above 100 µM in assay [1]; above 31.9 µM in assay [2]; above 100 µM in assay [3]; above 100 µM in assay [4]; 3.12 µM in assay [5]; above 100 µM in assay [6]. In addition, the TGI in assay [8] was above 100 µM.

Regarding `Nc1nc(N)c2c(n1)NC(c1ccc(Cl)cc1)C1CCc3ccccc3C1=N2` (configuration not stated), the GI50 was 6.45 µM in assay [1]; 6.17 µM in assay [2]; 10.8 µM in assay [3]; 5.21 µM in assay [4]; 0.497 µM in assay [5]; 4.09 µM in assay [6]. Besides, the figures for the GI50 in assay [7] and in assay [8] were 4.33 µM and 13 µM, respectively. Moreover, the TGI was determined as 21 µM in assay [1]; 19.6 µM in assay [2]; 43.1 µM in assay [3]; 20.9 µM in assay [4]; 2.02 µM in assay [5]; 17.8 µM in assay [6]. In addition, the TGI turned out to be 18.8 µM in assay [7] and 26.8 µM in assay [8].

Take `CCN(Cc1c(F)cccc1C(F)(F)F)c1ccc(CO)c(Cl)c1`: the GI50 in assay [1] was 0.132 µM; in assay [2], 15.6 µM; in assay [3], 14.6 µM; in assay [4], 12.6 µM; in assay [5], 7.81 µM; in assay [6] it was below 0.0249 µM. Besides, the results for the GI50 in assay [7] and in assay [8] were 10.2 µM and 12.5 µM, respectively. Further, the TGI in assay [1] was determined as 9.9 µM; in assay [2], 29.4 µM; in assay [3], 31.3 µM; in assay [4], 27 µM; in assay [5], 23.2 µM; in assay [6], 0.285 µM. Besides, the results for the TGI in assay [7] and in assay [8] were 24.2 µM and 26.4 µM, respectively.

Consider `Cc1cccc(Nc2ncc(-c3ccccc3)o2)c1`, for which the GI50 in assay [1], in assay [2], in assay [3], in assay [4], in assay [5] and in assay [6] was above 25 µM each time. Further, the GI50 in assay [7] and in assay [8] was above 25 µM each time. In addition, the TGI in assay [1], in assay [2], in assay [3], in assay [4], in assay [5] and in assay [6] was above 25 µM each time. The TGI in assay [7] and in assay [8] was above 25 µM throughout.

As to `NC(=O)C1CCCN1Cc1ccc2c(c1)OCO2` (configuration not stated), the TGI in assay [1], in assay [2], in assay [3], in assay [4], in assay [5] and in assay [6] was above 100 µM in each case. The TGI in assay [7] and in assay [8] was above 100 µM throughout.

With `CNC(=O)c1cc(Oc2ccc(NC(=O)Nc3ccc(Cl)c(C(F)(F)F)c3)cc2)ccn1`, the GI50 was 3.07 µM and 3.67 µM and 3.42 µM in assay [1]; 1.97 µM and 2.32 µM and 1.62 µM in assay [2]; 3 µM and 2.91 µM and 3.03 µM in assay [3]; 1.79 µM and 2.14 µM and 2.06 µM in assay [4]; 1.43 µM and 1.61 µM and 1.57 µM in assay [5]; 1.82 µM and 2.31 µM and 1.87 µM in assay [6]. Moreover, the GI50 is 3.21 µM and 2.01 µM and 2.91 µM in assay [7]; 1.86 µM and 2.65 µM and 2.73 µM in assay [8]. Moreover, the TGI is > 10 µM and 11.5 µM and 22.2 µM in assay [1]; > 10 µM and 9.07 µM and 4.82 µM in assay [2]; > 10 µM and 9.06 µM and 20.2 µM in assay [3]; 5.79 µM and 5.64 µM and 6.29 µM in assay [4]; 3.14 µM and 2.97 µM and 3.25 µM in assay [5]; > 10 µM and 7.43 µM and 7.85 µM in assay [6]. The TGI in assay [7] was > 10 µM and 4.3 µM and 8.81 µM; in assay [8] it was > 10 µM and 8.98 µM and 8.78 µM.

For `Cc1ccccc1N=C(c1ccccc1)C1C(=O)c2ccccc2C1=O`, the GI50 is 20.4 µM in assay [1]; 12.1 µM in assay [2]; 15 µM in assay [3]; 1.99 µM in assay [4]; 2.41 µM in assay [5]; 4.12 µM in assay [6]. Moreover, the values for the GI50 in assay [7] and in assay [8] were 21 µM and 23.4 µM, respectively. For the same compound, the TGI in assay [1] is above 100 µM; in assay [2], above 100 µM; in assay [3], above 100 µM; in assay [4], 17.7 µM; in assay [5] it was 13.3 µM; in assay [6] it was 36.5 µM. Besides, the TGI in assay [7] and in assay [8] was above 100 µM each time.
